The values that follow are results of earlier work, collected in paper PMC9851200, “Multiparameter phenotypic screening for endogenous TFEB and TFE3 translocation identifies novel chemical series modulating lysosome function” (Autophagy, 2022).

What all share (parameters): method as in original PKIS2 published data
Series [1] has as its target T1, kinases (KINOMEscan panel) (Homo sapiens, UniProt Q7L7X3).
T1 sequence (Q7L7X3 1-1001): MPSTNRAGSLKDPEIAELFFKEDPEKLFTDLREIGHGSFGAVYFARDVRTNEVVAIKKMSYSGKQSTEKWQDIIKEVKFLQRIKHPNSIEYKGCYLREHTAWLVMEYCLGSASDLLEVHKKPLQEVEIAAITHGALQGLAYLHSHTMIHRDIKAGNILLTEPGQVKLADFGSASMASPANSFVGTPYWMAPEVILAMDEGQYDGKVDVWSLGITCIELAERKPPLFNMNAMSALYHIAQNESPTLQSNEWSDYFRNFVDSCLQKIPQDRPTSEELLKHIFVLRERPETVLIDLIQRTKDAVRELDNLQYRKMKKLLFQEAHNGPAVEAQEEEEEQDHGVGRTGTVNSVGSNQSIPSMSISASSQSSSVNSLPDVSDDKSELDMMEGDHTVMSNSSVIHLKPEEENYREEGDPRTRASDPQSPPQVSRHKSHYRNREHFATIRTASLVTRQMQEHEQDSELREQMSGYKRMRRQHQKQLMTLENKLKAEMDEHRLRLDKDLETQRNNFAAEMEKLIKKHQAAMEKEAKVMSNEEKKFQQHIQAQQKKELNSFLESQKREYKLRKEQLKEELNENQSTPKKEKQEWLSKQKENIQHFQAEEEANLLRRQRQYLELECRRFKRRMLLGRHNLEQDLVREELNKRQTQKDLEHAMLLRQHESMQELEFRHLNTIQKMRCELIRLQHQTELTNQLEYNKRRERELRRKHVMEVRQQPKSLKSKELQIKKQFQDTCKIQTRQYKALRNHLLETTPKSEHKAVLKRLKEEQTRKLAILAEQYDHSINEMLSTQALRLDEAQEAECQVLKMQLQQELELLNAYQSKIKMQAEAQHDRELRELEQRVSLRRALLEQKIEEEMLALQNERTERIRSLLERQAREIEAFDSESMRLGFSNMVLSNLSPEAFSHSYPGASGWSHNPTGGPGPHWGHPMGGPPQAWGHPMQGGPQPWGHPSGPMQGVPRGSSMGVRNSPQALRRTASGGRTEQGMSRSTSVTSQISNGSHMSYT
The following applies: kinase TAOK1; Published KINOMEscan; ref original PKIS2 published data; cited from earlier work.

For series [2], the target named is kinases (KINOMEscan panel) (Homo sapiens, UniProt Q9P286). The following applies: kinase PAK5; Published KINOMEscan; ref original PKIS2 published data; cited from earlier work.
For series [3], the target named is T2, kinases (KINOMEscan panel) (Homo sapiens, UniProt Q8NE63).
T2 sequence (Q8NE63 1-616): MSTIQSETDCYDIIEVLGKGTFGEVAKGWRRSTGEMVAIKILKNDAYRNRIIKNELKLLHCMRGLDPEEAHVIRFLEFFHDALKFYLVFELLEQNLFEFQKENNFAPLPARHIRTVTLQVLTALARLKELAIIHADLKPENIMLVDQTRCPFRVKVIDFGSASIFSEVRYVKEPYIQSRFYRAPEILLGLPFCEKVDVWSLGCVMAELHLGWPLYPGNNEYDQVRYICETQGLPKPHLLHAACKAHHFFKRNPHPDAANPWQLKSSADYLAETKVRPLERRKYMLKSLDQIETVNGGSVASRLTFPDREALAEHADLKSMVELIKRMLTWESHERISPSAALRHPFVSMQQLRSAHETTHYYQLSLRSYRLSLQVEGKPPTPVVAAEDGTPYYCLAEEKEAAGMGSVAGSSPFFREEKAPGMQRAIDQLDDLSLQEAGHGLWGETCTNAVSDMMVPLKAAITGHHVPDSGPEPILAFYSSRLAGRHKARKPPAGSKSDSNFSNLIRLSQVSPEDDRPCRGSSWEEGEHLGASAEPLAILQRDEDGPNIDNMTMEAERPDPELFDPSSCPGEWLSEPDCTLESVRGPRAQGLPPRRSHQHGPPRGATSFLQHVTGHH
The following applies: kinase HIPK4; Published KINOMEscan; ref original PKIS2 published data; cited from earlier work.

Series [4] addresses T3, kinases (KINOMEscan panel) (Homo sapiens, UniProt Q8TF76).
T3 sequence (Q8TF76 1-798): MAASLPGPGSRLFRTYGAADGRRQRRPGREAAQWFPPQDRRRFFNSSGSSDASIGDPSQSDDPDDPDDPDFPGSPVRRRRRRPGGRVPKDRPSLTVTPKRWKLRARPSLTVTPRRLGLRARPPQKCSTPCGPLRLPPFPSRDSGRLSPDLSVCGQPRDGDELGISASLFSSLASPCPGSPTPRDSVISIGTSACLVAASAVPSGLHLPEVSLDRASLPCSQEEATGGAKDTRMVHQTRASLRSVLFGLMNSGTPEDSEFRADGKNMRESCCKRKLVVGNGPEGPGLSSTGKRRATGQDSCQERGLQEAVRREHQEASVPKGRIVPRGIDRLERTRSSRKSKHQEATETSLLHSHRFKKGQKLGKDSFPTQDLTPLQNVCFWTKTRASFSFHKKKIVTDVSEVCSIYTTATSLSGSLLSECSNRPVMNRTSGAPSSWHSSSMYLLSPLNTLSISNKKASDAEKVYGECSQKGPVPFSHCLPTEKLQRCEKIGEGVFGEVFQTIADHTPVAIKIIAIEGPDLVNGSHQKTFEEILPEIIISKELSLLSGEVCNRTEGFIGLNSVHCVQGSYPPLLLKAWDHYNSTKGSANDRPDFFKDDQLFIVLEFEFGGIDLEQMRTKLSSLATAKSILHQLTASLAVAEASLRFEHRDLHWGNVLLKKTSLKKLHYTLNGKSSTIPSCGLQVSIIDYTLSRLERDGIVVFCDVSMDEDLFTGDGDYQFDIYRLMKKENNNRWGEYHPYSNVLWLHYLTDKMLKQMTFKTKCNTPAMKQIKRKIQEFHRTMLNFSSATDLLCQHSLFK
As to conditions: HASPIN; Published KINOMEscan; ref original PKIS2 published data; cited from earlier work.

The target of series [5] is kinases (KINOMEscan panel) (Homo sapiens, UniProt P35590). The following applies: TIE1; Published KINOMEscan; ref original PKIS2 published data; cited from earlier work.
Series [6] deals with kinases (KINOMEscan panel) (Homo sapiens, UniProt P42338). The following applies: PIK3CB; Published KINOMEscan; ref original PKIS2 published data; cited from earlier work.
The target of series [7] is kinases (KINOMEscan panel) (Homo sapiens, UniProt Q9BYP7). As to conditions: Published KINOMEscan; ref original PKIS2 published data; cited from earlier work.
Chain of kinases (KINOMEscan panel) (Homo sapiens, UniProt Q9BYP7) (Q9BYP7 whole entry): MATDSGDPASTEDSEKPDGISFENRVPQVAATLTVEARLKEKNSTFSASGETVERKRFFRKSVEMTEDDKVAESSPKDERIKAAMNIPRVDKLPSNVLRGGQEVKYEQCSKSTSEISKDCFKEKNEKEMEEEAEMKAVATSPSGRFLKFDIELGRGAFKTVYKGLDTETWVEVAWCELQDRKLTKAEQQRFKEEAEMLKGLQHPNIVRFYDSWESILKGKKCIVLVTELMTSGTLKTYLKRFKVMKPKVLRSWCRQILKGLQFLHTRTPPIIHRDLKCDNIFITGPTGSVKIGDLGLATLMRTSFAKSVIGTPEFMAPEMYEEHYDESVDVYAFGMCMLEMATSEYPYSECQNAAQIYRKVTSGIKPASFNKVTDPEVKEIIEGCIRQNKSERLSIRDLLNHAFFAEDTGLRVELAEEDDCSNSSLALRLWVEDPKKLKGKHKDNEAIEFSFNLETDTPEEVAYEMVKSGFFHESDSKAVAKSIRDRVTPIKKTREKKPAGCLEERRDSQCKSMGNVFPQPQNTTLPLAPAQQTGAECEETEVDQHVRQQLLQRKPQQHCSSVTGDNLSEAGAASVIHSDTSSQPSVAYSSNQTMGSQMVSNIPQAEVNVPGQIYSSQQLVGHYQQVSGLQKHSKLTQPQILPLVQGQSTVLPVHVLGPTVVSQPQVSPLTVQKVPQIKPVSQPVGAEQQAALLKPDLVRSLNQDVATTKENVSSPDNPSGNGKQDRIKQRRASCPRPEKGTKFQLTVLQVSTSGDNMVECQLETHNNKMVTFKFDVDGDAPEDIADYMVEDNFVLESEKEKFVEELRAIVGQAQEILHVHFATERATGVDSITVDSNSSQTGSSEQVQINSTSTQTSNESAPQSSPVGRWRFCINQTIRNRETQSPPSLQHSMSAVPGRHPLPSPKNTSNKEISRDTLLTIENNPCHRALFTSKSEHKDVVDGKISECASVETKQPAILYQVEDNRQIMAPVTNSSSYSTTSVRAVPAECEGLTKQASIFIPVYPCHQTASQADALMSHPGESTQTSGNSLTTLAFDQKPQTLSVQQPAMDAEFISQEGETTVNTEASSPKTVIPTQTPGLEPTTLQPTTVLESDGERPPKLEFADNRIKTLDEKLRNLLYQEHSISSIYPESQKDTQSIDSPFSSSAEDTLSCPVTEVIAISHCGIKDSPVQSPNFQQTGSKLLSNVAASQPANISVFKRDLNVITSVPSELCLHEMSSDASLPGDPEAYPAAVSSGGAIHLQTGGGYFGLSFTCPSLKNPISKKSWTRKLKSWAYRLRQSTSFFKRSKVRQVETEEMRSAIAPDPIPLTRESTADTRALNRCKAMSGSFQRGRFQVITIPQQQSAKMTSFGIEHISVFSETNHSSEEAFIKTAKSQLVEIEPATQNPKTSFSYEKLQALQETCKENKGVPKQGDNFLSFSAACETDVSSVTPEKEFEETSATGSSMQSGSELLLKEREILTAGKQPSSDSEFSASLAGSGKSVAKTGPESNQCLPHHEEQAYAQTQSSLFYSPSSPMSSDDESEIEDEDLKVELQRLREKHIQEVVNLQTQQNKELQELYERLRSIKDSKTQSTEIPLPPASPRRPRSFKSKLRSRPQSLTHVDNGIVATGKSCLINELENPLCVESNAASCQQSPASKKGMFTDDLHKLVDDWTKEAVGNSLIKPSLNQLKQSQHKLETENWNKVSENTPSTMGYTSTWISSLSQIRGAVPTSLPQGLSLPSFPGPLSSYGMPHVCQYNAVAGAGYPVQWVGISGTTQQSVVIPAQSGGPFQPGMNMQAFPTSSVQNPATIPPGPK

Chain of kinases (KINOMEscan panel) (Homo sapiens, UniProt P42338) (P42338 whole entry): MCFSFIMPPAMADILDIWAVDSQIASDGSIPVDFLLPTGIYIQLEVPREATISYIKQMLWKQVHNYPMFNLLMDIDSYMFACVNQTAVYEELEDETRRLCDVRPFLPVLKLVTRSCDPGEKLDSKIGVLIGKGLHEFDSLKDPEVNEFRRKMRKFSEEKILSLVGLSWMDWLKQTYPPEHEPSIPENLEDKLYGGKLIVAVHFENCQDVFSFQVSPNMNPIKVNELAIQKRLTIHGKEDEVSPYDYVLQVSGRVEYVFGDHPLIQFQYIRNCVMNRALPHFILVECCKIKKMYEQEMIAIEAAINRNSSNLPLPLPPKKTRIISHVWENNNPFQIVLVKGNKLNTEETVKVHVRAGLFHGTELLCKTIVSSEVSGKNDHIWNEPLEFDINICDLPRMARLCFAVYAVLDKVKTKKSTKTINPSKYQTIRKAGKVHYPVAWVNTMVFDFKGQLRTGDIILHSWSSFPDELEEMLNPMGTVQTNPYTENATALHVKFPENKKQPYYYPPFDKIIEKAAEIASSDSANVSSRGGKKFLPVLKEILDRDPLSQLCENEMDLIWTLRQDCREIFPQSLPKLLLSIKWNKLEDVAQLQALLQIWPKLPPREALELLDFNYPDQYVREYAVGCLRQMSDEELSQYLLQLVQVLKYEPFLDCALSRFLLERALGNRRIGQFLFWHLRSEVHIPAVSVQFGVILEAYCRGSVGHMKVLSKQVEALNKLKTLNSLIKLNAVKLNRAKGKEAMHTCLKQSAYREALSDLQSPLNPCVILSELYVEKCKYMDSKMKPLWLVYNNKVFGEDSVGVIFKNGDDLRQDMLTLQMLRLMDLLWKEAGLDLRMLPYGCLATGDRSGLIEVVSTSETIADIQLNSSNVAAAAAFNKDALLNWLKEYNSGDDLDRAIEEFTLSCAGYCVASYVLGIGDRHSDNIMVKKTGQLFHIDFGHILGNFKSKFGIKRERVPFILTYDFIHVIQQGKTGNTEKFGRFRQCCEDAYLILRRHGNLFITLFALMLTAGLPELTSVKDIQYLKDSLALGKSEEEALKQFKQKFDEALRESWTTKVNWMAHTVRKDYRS
Chain of kinases (KINOMEscan panel) (Homo sapiens, UniProt Q9P286) (Q9P286 whole entry): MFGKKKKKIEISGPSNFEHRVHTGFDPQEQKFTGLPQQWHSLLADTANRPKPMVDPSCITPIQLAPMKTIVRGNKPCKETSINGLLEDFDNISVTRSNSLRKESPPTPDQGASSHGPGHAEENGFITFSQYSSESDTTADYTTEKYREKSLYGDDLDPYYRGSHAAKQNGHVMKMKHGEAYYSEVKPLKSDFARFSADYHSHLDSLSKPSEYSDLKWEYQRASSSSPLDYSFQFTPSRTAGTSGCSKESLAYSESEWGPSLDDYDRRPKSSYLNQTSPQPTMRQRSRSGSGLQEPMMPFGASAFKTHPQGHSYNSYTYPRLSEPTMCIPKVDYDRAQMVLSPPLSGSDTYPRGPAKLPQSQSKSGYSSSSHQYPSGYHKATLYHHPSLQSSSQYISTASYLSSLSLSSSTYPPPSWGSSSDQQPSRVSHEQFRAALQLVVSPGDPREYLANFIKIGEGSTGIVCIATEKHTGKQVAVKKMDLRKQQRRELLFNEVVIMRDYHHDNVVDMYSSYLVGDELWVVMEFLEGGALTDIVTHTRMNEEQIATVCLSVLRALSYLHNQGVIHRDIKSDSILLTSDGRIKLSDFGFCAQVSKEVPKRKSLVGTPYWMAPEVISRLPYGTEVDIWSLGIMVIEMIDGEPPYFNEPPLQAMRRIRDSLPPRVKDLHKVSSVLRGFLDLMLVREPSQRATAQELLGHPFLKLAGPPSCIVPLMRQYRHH
Chain of kinases (KINOMEscan panel) (Homo sapiens, UniProt P35590) (P35590 22-1138): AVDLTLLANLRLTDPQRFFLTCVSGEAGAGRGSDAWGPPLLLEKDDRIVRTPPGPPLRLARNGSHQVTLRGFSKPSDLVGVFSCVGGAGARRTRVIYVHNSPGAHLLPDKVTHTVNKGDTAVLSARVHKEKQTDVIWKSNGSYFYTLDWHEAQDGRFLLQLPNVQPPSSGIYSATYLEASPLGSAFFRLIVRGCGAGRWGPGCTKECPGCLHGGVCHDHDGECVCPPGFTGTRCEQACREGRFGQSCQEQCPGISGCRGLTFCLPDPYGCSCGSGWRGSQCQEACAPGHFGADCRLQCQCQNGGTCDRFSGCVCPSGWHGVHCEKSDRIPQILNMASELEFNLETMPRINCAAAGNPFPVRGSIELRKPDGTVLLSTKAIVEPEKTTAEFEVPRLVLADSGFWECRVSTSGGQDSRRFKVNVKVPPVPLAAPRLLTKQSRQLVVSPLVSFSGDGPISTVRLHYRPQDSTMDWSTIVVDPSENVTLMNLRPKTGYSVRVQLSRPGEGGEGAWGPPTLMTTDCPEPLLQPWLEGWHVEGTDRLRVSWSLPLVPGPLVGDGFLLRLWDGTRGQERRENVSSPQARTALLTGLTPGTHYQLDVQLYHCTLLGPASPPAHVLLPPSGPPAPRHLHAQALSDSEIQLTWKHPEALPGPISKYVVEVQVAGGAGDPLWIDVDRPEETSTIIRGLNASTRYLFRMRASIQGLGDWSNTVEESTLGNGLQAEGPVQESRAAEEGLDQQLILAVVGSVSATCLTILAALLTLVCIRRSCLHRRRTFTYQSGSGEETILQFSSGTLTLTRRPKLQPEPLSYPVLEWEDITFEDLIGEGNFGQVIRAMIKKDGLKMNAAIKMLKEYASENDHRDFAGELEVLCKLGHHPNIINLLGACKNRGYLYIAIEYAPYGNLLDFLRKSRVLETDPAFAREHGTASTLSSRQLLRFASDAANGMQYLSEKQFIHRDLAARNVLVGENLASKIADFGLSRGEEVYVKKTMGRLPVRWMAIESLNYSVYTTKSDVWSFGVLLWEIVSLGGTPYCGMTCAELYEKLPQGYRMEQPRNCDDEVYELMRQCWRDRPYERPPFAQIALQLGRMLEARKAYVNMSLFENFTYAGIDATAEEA

In the case of `Cc1cccc(-c2nc(Nc3ccncc3)c3ccccc3n2)n1` [NK215], the “KINOMEscan TAOK1” value in series [1] is 0. Besides, the “KINOMEscan PAK5” value in series [2] is reported as 0. The “KINOMEscan HIPK4” value in series [3] was 19. Moreover, the “KINOMEscan HASPIN” value in series [4] is 26. Besides, the “KINOMEscan TIE1” value in series [5] is listed as 20. Further, the “KINOMEscan PIK3CB” value in series [6] is given as 0. In addition, the “KINOMEscan WNK3” value in series [7] is 0.
